Measurements taken from patent EP0565593B1, “REDUCING PESTICIDAL INTERACTIONS IN CROPS” (priority 1990, dated 1992).
“And” between values parts separate entries of the source, which are not always exact repeats. Identical values can stand only once. Like-named read-outs stand apart in the source and are kept apart here.

How the values were obtained:
Giant foxtail (GIFT) = experiment: Greenhouse test Procedure VII (same examples); format: in vivo; settings: Antidote + Biocide No. 1 in furrow
Source text: (§1) This procedure describes interaction among herbicide, biocide and antidote when the biocide and the antidote is applied to a soil furrow containing crop seed before emergence of the crop and the herbicide is applied after emergence of the crop and weeds. The soil and planting depth was described in Procedure IV. The containers for comparison, the biocide and antidote applications to soil furrows were described in Procedure VI. In this procedure, the seed beds of the first, second, third and fourth containers are covered by soil layers not treated with herbicide. The containers were then placed on a bench in a greenhouse and subirrigated as required for the duration of the test. The herbicide, dispersed or dissolved in water containing 0.25% v/v nonionic surfactant (X-77) was applied by a track sprayer (187 L/ha) to the emerged plants of the second, third and fourth containers about five days after planting. All treatments were run in duplicate. Plant response was observed according to Procedure IV. Variations in this procedure will be noted in the examples.
In these tests (according to Procedure VII) the safeners in solution with acetone were applied in furrow to the soil, followed by COUNTER 15G granules at 227 g/305 m (8 oz./1000'). Applications were made in alternate rows in two separate 13.7 cm x 27.7 cm pans containing Dupo silt loam. Pans were seeded 1.3 cm deep, placed on benches in a greenhouse and subirrigated. BEACON was formulated in water with 0.25% v/v X-77 surfactant and applied by track sprayer at a rate of 187 L/Ha (20 gal/A). Weed species in this test were giant foxtail, shattercane and velvetleaf. The herbicide was applied five (5) days after PPI initiation and observation of test result (shown in Table 47) made eight (8) days later.
In Table 47 COUNTER 15G is abbreviated as "C" and the antidotes as "A" in the column headings which indicate the "C + A" ratios used in the tests. Control and COUNTER treatments are average of four (4) replications and COUNTER + Antidote treatments, average of 2 reps.

cotton (COTT) = experiment: Multi-crop greenhouse test, biocide, herbicide and safener applied to soil covers (Examples 65, 66; Tables 64, 65); format: in vivo
Method: Tests according to this invention in various crops indicate widespread application of the invention. In Examples 62-66 below are described tests with a variety of herbicides contacted with COUNTER® 15G in the presence and absence of MON-7400 (Antidote No. 12); MON-13900 (No. 1); MON-4660 (No. 16) and flurazole (No. 16). Those tests were conducted according to Procedures IV or V described above and illustrated further in other foregoing examples. Plants used in all tests were, for crops (as abbreviated in parentheses); cotton (COTT); soybean (SOBE); CORN, grain sorghum (GRSO); wheat (WHEA) and RICE, and the weeds giant foxtail (GIFT) and velvetleaf (VELE). The data in the tables below represent averages of two replications.
In this test the crops and weeds were planted 1.3 cm deep in 13.7 cm X 27.7 cm pans containing Dupo silt loam soil. The test safeners were applied in acetone solution and COUNTER 15G as dry granules to soil cover layers and incorporated by shaking in a bag. Treated cover layers were placed on seeded pans which were transferred to greenhouse benches and subirrigated. Herbicide was applied POE six (6) days after PPI initiation and observations of plant injury made ten (10) days later; results are shown in Table 61. The herbicide used in this example was BEACON (No. 8).
In another test in the several crops and weeds used in this test series, the herbicidal component was MON-12000 (No. 1); the other components were the same. the procedure used in this test was the same as that described in Example 62, modified to use a light overhead irrigation (about 0.32 cm/day) during days 4-7 of the test.
In yet another test in this series, XRD-498 (Herbicide No. 21) was used as the herbicidal component in contact with COUNTER 15G in the presence of the above safeners. The various components of the system (biocide, herbicide and safener) were applied concurrently to soil covers of the seeded plants.

Velvetleaf (VELE) [1] = format: in vivo, Abutilon theophrasti
Velvetleaf (VELE) [2] = experiment: Greenhouse test Procedure VII (same examples); format: in vivo, Abutilon theophrasti; settings: Antidote + Biocide No. 1 in furrow
Source text: as §1
In this example, tests were conducted according to Procedure VII for the POE application of the herbicides following in-furrow application of COUNTER® 15G insecticide (BIOCIDE No. 1) and the antidote on the pre-planted test seeds. In this test, the herbicides were Nos. 1 (MON-12000), 10 (ALLY®) and #4 (HARMONY®) and the Antidote Nos. 1, 7, 12 and 33.
These in-furrow treatments comprised a 50-50 mix of blended granules of COUNTER with and without 5G granular antidotes at 7.4 + 7.4 mg/cm or 1.1 + 0.37 mg active ingredient (a.i.)/cm. The in-furrow initiation of the test was followed five (5) days later with POE application of the herbicides; observations were made eight (8) days later. Table 38 […]

[3] = Herbicide No. 1 0.14 Kg/Ha POE, 8 days after POE
[4] = Herbicide No. 4 0.17 Kg/Ha POE, 8 days after POE
[5] = Herbicide No. 5 0.07 Kg/Ha POE, 8 days after POE
[6] = Herbicide No. 7 0.56 Kg/Ha POE, 8 days after POE
[7] = Herbicide No. 9 0.009 Kg/Ha POE
[8] = Herbicide No. 10 0.002 Kg/Ha POE, 8 days after POE
[9] = Herbicide No. 15 0.0044 Kg/Ha POE, 8 days after POE
[10] = Herbicide No. 16 0.01 Kg/Ha POE
[11] = Herbicide No. 18 0.0044 Kg/Ha POE
[12] = Herbicide No. 19 0.28 Kg/Ha POE
[13] = Herbicide No. 21 0.14 Kg/Ha POE
[14] = Herbicide No. 23 0.0006 Kg/Ha POE

For `COC(=O)COC(c1ccccc1)c1ccccc1` [compound 12], the “% Inhibition GIFT” value (Giant foxtail (GIFT); [3]) was 0%, the “% Inhibition GIFT” value (Giant foxtail (GIFT); [4]) was 0% and the “% Inhibition GIFT” value (Giant foxtail (GIFT); [5]) was 0%. For the same molecule, the “% Inhibition GIFT” value (Giant foxtail (GIFT); Herbicide No. 6 0.01 Kg/Ha POE) was 50%, the “% Inhibition GIFT” value (Giant foxtail (GIFT); [6]) was 85% and the “% Inhibition GIFT” value (Giant foxtail (GIFT); [7]) was 10%. The “% Inhibition GIFT” value (Giant foxtail (GIFT); [8]) was 0%, the “% Inhibition GIFT” value (Giant foxtail (GIFT); [9]) was 0% and the “% Inhibition GIFT” value (Giant foxtail (GIFT); [10]) was 20%. For the same molecule, the “% Inhibition GIFT” value (Giant foxtail (GIFT); [11]) was 60%, the “% Inhibition GIFT” value (Giant foxtail (GIFT); [12]) was 35% and the “% Inhibition GIFT” value (Giant foxtail (GIFT); [13]) was 25%. The “% Inhibition GIFT” value (Giant foxtail (GIFT); [14]) was 25%, the “% Inhibition COTT” value (cotton (COTT); Table 64, Herb. No. 1 0.018 Kg/Ha + Biocide No. 1 8.96 Kg/Ha + Antidote 4.48 Kg/Ha) was 10% and the “% Inhibition COTT” value (cotton (COTT); Table 64, Herb. No. 1 0.07 Kg/Ha + Biocide No. 1 8.96 Kg/Ha + Antidote 4.48 Kg/Ha) was 40%. The “% Inhibition COTT” value (cotton (COTT); Table 64, Herb. No. 1 0.28 Kg/Ha + Biocide No. 1 8.96 Kg/Ha + Antidote 4.48 Kg/Ha) was 40%, the “% Inhibition COTT” value (cotton (COTT); Table 65, Herb. No. 1 0.018 Kg/Ha + Biocide No. 1 8.96 Kg/Ha + Antidote 4.48 Kg/Ha) was 15% and the “% Inhibition COTT” value (cotton (COTT); Table 65, Herb. No. 1 0.07 Kg/Ha + Biocide No. 1 8.96 Kg/Ha + Antidote 4.48 Kg/Ha) was 10%. For the same molecule, the “% Inhibition COTT” value (cotton (COTT); Table 65, Herb. No. 1 0.28 Kg/Ha + Biocide No. 1 8.96 Kg/Ha + Antidote 4.48 Kg/Ha) was 35%, the “% Inhibition 5 DAP VELE” value (Velvetleaf (VELE) [1]; Antidote 4.48 + Biocide No. 1 8.96 Kg/Ha PPI, Herb. No. 8 0.07, 5 DAP, before herbicide application) was 25% and the “% Inhibition 13 DAP VELE” value (Velvetleaf (VELE) [1]; Antidote 4.48 + Biocide No. 1 8.96 Kg/Ha PPI, Herb. No. 8 0.07 POE, 13 DAP) was 90%. The “% Inhibition VELE” value (Velvetleaf (VELE) [1]; Antidote 4.48 + Biocide No. 1 8.96 Kg/Ha PPI, Herbicide No. 7 0.28 POE, 13 days after planting) was 65%, the “% Inhibition 5 DAP VELE” value (Velvetleaf (VELE) [1]; Herb. […], 5 DAP, before herbicide application) was 0% and the “% Inhibition 13 DAP VELE” value (Velvetleaf (VELE) [1]; Herb. […], 13 DAP, after herbicide application) was 90%. For the same molecule, the “% Inhibition VELE” value (Velvetleaf (VELE) [1]; Table 14: Herbicide No. 7 (ACCENT) 0.84 Kg/Ha POE + Biocide No. 2 8.96 Kg/Ha PPI + antidote 4.48 Kg/Ha PPI, 13 days after planting, 8 days after herbicide) was 70%, the “% Inhibition VELE” value (Velvetleaf (VELE) [1]; […], 13 days after planting, 8 days after herbicide) was 75% and the “% Inhibition VELE” value (Velvetleaf (VELE) [1]; […], observed 8 days later (Table 32)) was 85%. The “% Inhibition VELE” value (Velvetleaf (VELE) [1]; […], observed 8 days later (Table 33)) was 75%, the “% Inhibition VELE” value (Velvetleaf (VELE) [1]; […], observed 10 days after herbicide application) was 90% and the “% Inhibition 5 DAP VELE” value (Velvetleaf (VELE) [1]; in vivo) was 20%. For the same molecule, the “% Inhibition 13 DAP VELE” value (Velvetleaf (VELE) [1]; in vivo) was 85%, the “% Inhibition VELE” value (Velvetleaf (VELE) [1]; in vivo) was 70% and 65% and 85% and 75% and 90% and 80% and the “% Inhibition VELE” value (Velvetleaf (VELE) [2]; [3]) was 90%. The “% Inhibition VELE” value (Velvetleaf (VELE) [2]; [4]) was 85%, the “% Inhibition VELE” value (Velvetleaf (VELE) [2]; [5]) was 85% and the “% Inhibition VELE” value (Velvetleaf (VELE) [2]; Herbicide No. 6 0.01 Kg/Ha POE) was 65%. For the same molecule, the “% Inhibition VELE” value (Velvetleaf (VELE) [2]; [6]) was 75%, the “% Inhibition VELE” value (Velvetleaf (VELE) [2]; [7]) was 85% and the “% Inhibition VELE” value (Velvetleaf (VELE) [2]; [8]) was 90%. The “% Inhibition VELE” value (Velvetleaf (VELE) [2]; [9]) was 75%, the “% Inhibition VELE” value (Velvetleaf (VELE) [2]; [10]) was 25% and the “% Inhibition VELE” value (Velvetleaf (VELE) [2]; [11]) was 70%. For the same molecule, the “% Inhibition VELE” value (Velvetleaf (VELE) [2]; [12]) was 60%, the “% Inhibition VELE” value (Velvetleaf (VELE) [2]; [13]) was 85% and the “% Inhibition VELE” value (Velvetleaf (VELE) [2]; [14]) was 65%.
